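A five-concentration, 48-hour dose response in 96-well plates underlies each endpoint, interpolated linearly between surrounding concentrations. Here, GI50 denotes the concentration required for 50% inhibition of growth.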 The source made the active and inactive calls. Cut-off read from the data, not from the text of the source: active = GI50 up to about 1.1 µM and inactive = higher.
How the values were obtained:
Assay in all cases: growth of human tumour cells (NCI), 48 h
786-0 = tested on: 786-0
A549 = tested on: A549
ACHN = tested on: ACHN
CAKI-1 = tested on: CAKI-1
HCT-15 = tested on: HCT-15
HOP-62 = tested on: HOP-62
IGROV-1 = tested on: IGROV-1
MDA-MB-435 = tested on: MDA-MB-435
Malme-3M = tested on: Malme-3M
RPMI-8226 = tested on: RPMI-8226
SF-295 = tested on: SF-295
SK-MEL-28 = tested on: SK-MEL-28
SK-MEL-5 = tested on: SK-MEL-5
SK-OV-3 = tested on: SK-OV-3
SNB-19 = tested on: SNB-19
SNB-75 = tested on: SNB-75
SR = tested on: SR
UACC-257 = tested on: UACC-257
UACC-62 = tested on: UACC-62

Compound | GI50 (786-0) | GI50 (A549) | GI50 (ACHN) | GI50 (CAKI-1) | GI50 (HCT-15) [µM] | GI50 (HOP-62) | GI50 (IGROV-1) | GI50 (MDA-MB-435) | GI50 (Malme-3M) | GI50 (RPMI-8226) | GI50 (SF-295) | GI50 (SK-MEL-28) | GI50 (SK-MEL-5) | GI50 (SK-OV-3) | GI50 (SNB-19) | GI50 (SNB-75) | GI50 (SR) | GI50 (UACC-257) | GI50 (UACC-62)
O=C(/C=N/O)c1c(-c2ccccc2)[nH]c(-c2ccccc2)c1-c1ccccc1 | 54.1 µM (inactive) | 14.1 µM (inactive) | 16 µM (inactive) | 22.1 µM (inactive) | 17.9 | 44.4 µM (inactive) | 13.8 µM (inactive) | 14.4 µM (inactive) | 18.3 µM (inactive) | 5.35 µM (inactive) | 14.3 µM (inactive) | 17.8 µM (inactive) | 16.2 µM (inactive) | 16.1 µM (inactive) | 15.3 µM (inactive) | 18.3 µM (inactive) | 0.0481 µM (active) | 16.2 µM (inactive) | 15.2 µM (inactive)
CCOS(=O)(=O)c1ccc(-c2c3nc(c(-c4ccc(S(=O)(=O)OCC)cc4)c4ccc([nH]4)c(-c4ccc(S(=O)(=O)OCC)cc4)c4nc(c(-c5ccc(S(=O)(=O)OCC)cc5)c5ccc2[nH]5)C=C4)C=C3)cc1 | > 31.6 µM (inactive) | > 31.6 µM (inactive) | > 31.6 µM (inactive) | > 31.6 µM (inactive) | > 31.6 | > 10 µM (inactive) | > 100 µM (inactive) | > 31.6 µM (inactive) | 17.7 µM (inactive) | > 31.6 µM (inactive) | > 31.6 µM (inactive) | > 10 µM (inactive) | > 31.6 µM (inactive) | > 31.6 µM (inactive) | > 31.6 µM (inactive) | > 10 µM (inactive) | > 31.6 µM (inactive) | > 31.6 µM (inactive) | > 31.6 µM (inactive)
COc1ccc(Cc2nc3cc(C(F)(F)F)ccc3n2C[C@@H]2CCCN3CCCCC23)cc1 (stereo partly drawn) | 5.55 µM (inactive) | 9.02 µM (inactive) | 6.75 µM (inactive) | 12.6 µM (inactive) | 14.2 | 8.73 µM (inactive) | 5.42 µM (inactive) | 12.2 µM (inactive) | 3.18 µM (inactive) | 11.6 µM (inactive) | 5.82 µM (inactive) | 13 µM (inactive) | 6.92 µM (inactive) | 15.1 µM (inactive) | 13.4 µM (inactive) | 27.4 µM (inactive) | 3.93 µM (inactive) | 2.46 µM (inactive) | 5.69 µM (inactive)
CCOC(=O)/C1=C(\C)N(Cc2ccccc2)C(=O)c2ccccc2C(=O)c2c(O)ccc(O)c21 | > 100 µM (inactive) | > 100 µM (inactive) | > 100 µM (inactive) | > 100 µM (inactive) | > 100 | > 100 µM (inactive) | 34.7 µM (inactive) | > 100 µM (inactive) | > 100 µM (inactive) | 66.7 µM (inactive) | > 100 µM (inactive) | > 100 µM (inactive) | > 100 µM (inactive) | > 100 µM (inactive) | > 100 µM (inactive) | > 100 µM (inactive) | > 100 µM (inactive) | > 100 µM (inactive) | > 100 µM (inactive)
Oc1c2c(c(O)c3ccccc13)C1(N=N2)c2ccccc2Oc2ccccc21 | 3.2 µM (inactive) | 10 µM (inactive) | 3.79 µM (inactive) | 10.3 µM (inactive) | 2.65 | 16 µM (inactive) | 2.52 µM (inactive) | 4.38 µM (inactive) | 2.48 µM (inactive) | 2.88 µM (inactive) | 15 µM (inactive) | 11.4 µM (inactive) | 13 µM (inactive) | 16 µM (inactive) | 16.2 µM (inactive) | 17.3 µM (inactive) | 3.4 µM (inactive) | 5.71 µM (inactive) | 11.1 µM (inactive)
C[C@@H](c1ccccc1)N1CN(C(=O)OCc2ccccc2)C(C)(C)CC1=O | > 100 µM (inactive) | > 100 µM (inactive) | > 100 µM (inactive) | > 100 µM (inactive) | > 100 | > 100 µM (inactive) | > 100 µM (inactive) | > 100 µM (inactive) | > 100 µM (inactive) | > 100 µM (inactive) | > 100 µM (inactive) | 56.9 µM (inactive) | 41.7 µM (inactive) | > 100 µM (inactive) | > 100 µM (inactive) | > 100 µM (inactive) | 86.3 µM (inactive) | 78.2 µM (inactive) | > 100 µM (inactive)
COc1cc2c3c(n(C)c(=O)c2cc1OC)-c1cc2c(cc1C3=O)OCO2 | 16.9 µM (inactive) | 55.1 µM (inactive) | 1.01 µM (active) | 4.98 µM (inactive) | > 96.2 | 1.87 µM (inactive) | 2.47 µM (inactive) | 90.6 µM (inactive) | 67.5 µM (inactive) | 71.3 µM (inactive) | 0.871 µM (active) | > 66.1 µM (inactive) | 9.2 µM (inactive) | 11.3 µM (inactive) | 27.1 µM (inactive) | 3.73 µM (inactive) | 0.105 µM (active) | > 83.9 µM (inactive) | 1.7 µM (inactive)
